Target: p53-MDM2 interaction (GST-MDM2 protein aa 23-117 / biotinylated p53 wt peptide) (Homo sapiens (Human), UniProt Q00987)
Assay: MDM2-p53 Inhibition AlphaScreen
Format: biochemical
Conditions: 20 nM GST-MDM2 (aa 23-117), 20 nM biotinylated p53 wt peptide
Text: MDM2-p53 Inhibition AlphaScreen

Compound	IC50
O=C(O)c1ccc(CN2C[C@H]3[C@@H](C2=O)[C@H](c2cccc(Cl)c2F)[C@]2(C(=O)Nc4cc(Cl)ccc42)N3CC2CC2)cc1 [Compound I-242]	0.037 µM
O=C(O)c1ccc(N2C[C@H]3[C@@H](C2=O)[C@H](c2ccnc(Cl)c2F)[C@]2(C(=O)Nc4cc(Cl)ccc42)N3CC2CC2)cc1 [Compound I-244]	0.004 µM
CCOc1cccc(CN2[C@H]3CN(Cc4ccc(C(=O)O)cc4)C(=O)[C@H]3[C@H](c3cccc(Cl)c3F)[C@]23C(=O)Nc2cc(Cl)ccc23)c1 [Compound I-246]	0.017 µM
CCOc1cccc(CN2[C@H]3CN(Cc4ccc(C(=O)O)cc4)C(=O)[C@H]3[C@H](c3cccc(Cl)c3F)[C@@]23C(=O)Nc2cc(Cl)ccc23)c1 [Compound I-248]	0.485 µM
COc1cc(N2C[C@H]3[C@@H](C2=O)[C@H](c2cccc(Br)c2F)[C@]2(C(=O)Nc4cc(Cl)ccc42)N3CC2CC2)ccc1C(=O)O [Compound I-250]	0.009 µM
O=C(O)c1ccc(N2C[C@H]3[C@@H](C2=O)[C@H](c2cccc(Br)c2F)[C@]2(C(=O)Nc4cc(Cl)ccc42)N3CC2CC2)cc1 [Compound I-252]	0.009 µM
O=C(O)c1ccc(N2C[C@H]3[C@@H](C2=O)[C@H](c2cccc(Br)c2F)[C@]2(C(=O)Nc4cc(Cl)ccc42)N3CC2CC2)cc1F [Compound I-254]	0.009 µM
O=C(O)c1ccc(N2C[C@H]3[C@@H](C2=O)[C@H](c2cccc(Cl)c2F)[C@]2(C(=O)Nc4cc(Cl)ccc42)N3CC2CC2)cc1C(F)(F)F [Compound I-256]	0.027 µM
COc1cc(N2C[C@H]3[C@@H](C2=O)[C@H](c2cccc(Cl)c2F)[C@]2(C(=O)Nc4cc(Cl)ccc42)N3CC2CC2)ccc1C(=O)O [Compound I-258]	0.004 µM
O=C(O)c1ccc(N2C[C@H]3[C@@H](C2=O)[C@H](c2cccc(Cl)c2F)[C@]2(C(=O)Nc4cc(Cl)ccc42)N3CC2CC2)cc1OC(F)(F)F [Compound I-259]	0.011 µM
Cc1cc(N2C[C@H]3[C@@H](C2=O)[C@H](c2cccc(Cl)c2F)[C@]2(C(=O)Nc4cc(Cl)ccc42)N3CC2CC2)ccc1C(=O)O [Compound I-261]	0.005 µM
O=C(CO)c1ccc(N2C[C@H]3[C@@H](C2=O)[C@H](c2cccc(Cl)c2F)[C@]2(C(=O)Nc4cc(Cl)ccc42)N3CC2CC2)cc1 [Compound I-262]	0.021 µM
O=C(O)c1ccc(N2CC[C@H]3[C@@H](C2=O)[C@H](c2cccc(Cl)c2F)[C@]2(C(=O)Nc4cc(Cl)ccc42)N3CC2CC2)c(O)c1 [Compound I-264]	0.049 µM
NC(=O)c1ccc(N2CC[C@H]3[C@@H](C2=O)[C@H](c2cccc(Cl)c2F)[C@]2(C(=O)Nc4cc(Cl)ccc42)N3CC2CC2)cc1 [Compound I-268]	0.026 µM
CNC(=O)c1ccc(N2CC[C@H]3[C@@H](C2=O)[C@H](c2cccc(Cl)c2F)[C@]2(C(=O)Nc4cc(Cl)ccc42)N3CC2CC2)cc1 [Compound I-270]	0.027 µM
CN(C)C(=O)c1ccc(N2CC[C@H]3[C@@H](C2=O)[C@H](c2cccc(Cl)c2F)[C@]2(C(=O)Nc4cc(Cl)ccc42)N3CC2CC2)cc1 [Compound I-272]	0.025 µM
O=C(NO)c1ccc(N2CC[C@H]3[C@@H](C2=O)[C@H](c2cccc(Cl)c2F)[C@]2(C(=O)Nc4cc(Cl)ccc42)N3CC2CC2)cc1 [Compound I-274]	0.02 µM
CN(O)C(=O)c1ccc(N2CC[C@H]3[C@@H](C2=O)[C@H](c2cccc(Cl)c2F)[C@]2(C(=O)Nc4cc(Cl)ccc42)N3CC2CC2)cc1 [Compound I-276]	0.046 µM

Compound	IC50
CON(C)C(=O)c1ccc(N2CC[C@H]3[C@@H](C2=O)[C@H](c2cccc(Cl)c2F)[C@]2(C(=O)Nc4cc(Cl)ccc42)N3CC2CC2)cc1 [Compound I-278]	0.033 µM
NC(=O)c1ccc(N2C[C@H]3[C@@H](C2=O)[C@H](c2cccc(Cl)c2F)[C@]2(C(=O)Nc4cc(Cl)ccc42)N3CC2CC2)cc1 [Compound I-280]	0.007 µM
NC(=O)c1ccc(N2C[C@H]3[C@@H](C2=O)[C@H](c2cccc(Cl)c2F)[C@]2(C(=O)Nc4cc(Cl)ccc42)N3CC2CC2)cc1C(F)(F)F [Compound I-281]	0.067 µM
CCOc1cccc(CN2[C@H]3CN(c4ccc(C(=O)NO)cc4)C(=O)[C@H]3[C@H](c3cccc(Cl)c3F)[C@]23C(=O)Nc2cc(Cl)ccc23)c1 [Compound I-283]	0.004 µM
CCOc1cccc(CN2[C@H]3CN(c4ccc(C(N)=O)cc4)C(=O)[C@H]3[C@H](c3cccc(Cl)c3F)[C@]23C(=O)Nc2cc(Cl)ccc23)c1 [Compound I-284]	0.003 µM
O=C(NO)c1ccc(N2C[C@H]3[C@@H](C2=O)[C@H](c2cccc(Cl)c2F)[C@]2(C(=O)Nc4cc(Cl)ccc42)N3CC2CC2)cc1 [Compound I-285]	0.008 µM
CN(C)C(=O)c1ccc(N2C[C@H]3[C@@H](C2=O)[C@H](c2cccc(Cl)c2F)[C@]2(C(=O)Nc4cc(Cl)ccc42)N3CC2CC2)cc1 [Compound I-286]	0.01 µM
CNC(=O)c1ccc(N2C[C@H]3[C@@H](C2=O)[C@H](c2cccc(Cl)c2F)[C@]2(C(=O)Nc4cc(Cl)ccc42)N3CC2CC2)cc1 [Compound I-287]	0.008 µM
NC(=O)c1ccc(N2C[C@H]3[C@@H](C2=O)[C@H](c2ccnc(Cl)c2F)[C@]2(C(=O)Nc4cc(Cl)ccc42)N3CC2CC2)cc1 [Compound I-288]	0.008 µM
O=C(O)c1ccc(-c2cc(Cl)c(F)c([C@H]3[C@@H]4C(=O)NCC[C@@H]4N(CC4CC4)[C@@]34C(=O)Nc3cc(Cl)ccc34)c2)cc1 [Compound I-290]	0.036 µM
Nc1ccc(N2CC[C@H]3[C@@H](C2=O)[C@H](c2cccc(Cl)c2F)[C@]2(C(=O)Nc4cc(Cl)ccc42)N3CC2CC2)cc1 [Compound I-292]	0.164 µM
CC(=O)Nc1ccc(N2CC[C@H]3[C@@H](C2=O)[C@H](c2cccc(Cl)c2F)[C@]2(C(=O)Nc4cc(Cl)ccc42)N3CC2CC2)cc1 [Compound I-296]	0.058 µM
O=CNc1ccc(N2CC[C@H]3[C@@H](C2=O)[C@H](c2cccc(Cl)c2F)[C@]2(C(=O)Nc4cc(Cl)ccc42)N3CC2CC2)cc1 [Compound I-298]	0.086 µM
CS(=O)(=O)Nc1ccc(N2CC[C@H]3[C@@H](C2=O)[C@H](c2cccc(Cl)c2F)[C@]2(C(=O)Nc4cc(Cl)ccc42)N3CC2CC2)cc1 [Compound I-300]	0.098 µM
CS(=O)(=O)Nc1ccc(N2C[C@H]3[C@@H](C2=O)[C@H](c2cccc(Cl)c2F)[C@]2(C(=O)Nc4cc(Cl)ccc42)N3CC2CC2)cc1F [Compound I-302]	0.037 µM
CCOC(=O)CNc1ccc(N2CC[C@H]3[C@@H](C2=O)[C@H](c2cccc(Cl)c2F)[C@]2(C(=O)Nc4cc(Cl)ccc42)N3CC2CC2)cc1 [Compound I-304]	0.192 µM
O=C(O)CNc1ccc(N2CC[C@H]3[C@@H](C2=O)[C@H](c2cccc(Cl)c2F)[C@]2(C(=O)Nc4cc(Cl)ccc42)N3CC2CC2)cc1 [Compound I-306]	0.067 µM

Test system: solid tumor xenograft models
Assay: not given
Conditions: Carol et al. 2013; cited from earlier work

Compound	tumor growth inhibition
CCOc1cc(C(C)(C)C)ccc1C1=N[C@@](C)(c2ccc(Cl)cc2)[C@@](C)(c2ccc(Cl)cc2)N1C(=O)N1CCN(CCCS(C)(=O)=O)CC1 [RG-7112]	induced tumor growth inhibition

Test system: acute lymphoblastic leukemia (ALL) xenograft models with mixed-lineage leukemia (MLL) rearrangement
Assay: not given
Conditions: Carol et al. 2013; cited from earlier work

Compound	efficacy in xenograft models
CCOc1cc(C(C)(C)C)ccc1C1=N[C@@](C)(c2ccc(Cl)cc2)[C@@](C)(c2ccc(Cl)cc2)N1C(=O)N1CCN(CCCS(C)(=O)=O)CC1 [RG-7112]	particularly efficacious

Test system: p53 wild-type vs. p53 mutant cell lines
Assay: not given
Conditions: Carol et al. 2013; cited from earlier work

Compound	cytotoxic activity, median IC50
CCOc1cc(C(C)(C)C)ccc1C1=N[C@@](C)(c2ccc(Cl)cc2)[C@@](C)(c2ccc(Cl)cc2)N1C(=O)N1CCN(CCCS(C)(=O)=O)CC1 [RG-7112]	lower median IC50 values for p53 wild-type vs. p53 mutant cell lines

Test system: human acute myeloid leukemia (AML) and human prostate tumor xenograft models harboring p53 wild-type
Assay: not given
Conditions: Tovar et al. 2013; cited from earlier work

Compound	antiproliferative and proapoptotic activity
CCOc1cc(C(C)(C)C)ccc1C1=N[C@@](C)(c2ccc(Cl)cc2)[C@@](C)(c2ccc(Cl)cc2)N1C(=O)N1CCN(CCCS(C)(=O)=O)CC1 [RG7112]	antiproliferative and proapoptotic activity of RG7112 has been observed

Source: patent publication US10576064B2, “Spiro[3H-indole-3,2′-pyrrolidin]-2(1H)-one compounds and derivatives as MDM2-P53 inhibitors” (Boehringer Ingelheim International GmbH, priority 2014, dated 2020)
